The text below walks through data of US20170008888A1 (KYORIN PHARMACEUTICAL CO., LTD., priority 2014, published 2017).

The EC50 is the concentration that produces a half-maximal response.

The test system of this test is murine Th17 cells. Put plainly: Cytokine response by in vitro-polarized murine Th17 cells stimulated with PMA/ionomycin. It counts as cell-based. Particulars: Mus musculus, PMA/ionomycin 20 h. As to the method: Purification of murine CD4+ T cells: To isolate mouse splenocytes, freshly isolated mouse spleens were minced in culture media (RPMI 1640 (Lonza, Allendale, N.J.) containing 10% (v/v) charcoal-dextran filtered, heat inactivated FBS (Omega Scientific, Tarzana, Calif.), 0.05 mM 2-Mercaptoethanol (Sigma-Aldrich, St. Louis, Mo.), and 1×Pen/Strep Amphotericin B (Lonza)), using a sterile razor blade then pushed through 70 and 40 μm cell strainers. Cells were resuspended in ACK Lysing Buffer (Lonza) for 3 minutes at room temperature to lyse the red blood cells. CD4+ T cells were isolated from the mouse splenocytes using the EasySep negative selection mouse CD4+ T cell isolation kit (Stemcell, Vancouver, Canada) according to manufacturer's instructions briefly as follows: Unwanted cells were specifically labeled by incubation with a cocktail of biotinylated antibodies directed against cell surface antigens on mouse cells of hematopoietic origin (CD8a, CD11b, CD11c, CD19, CD45R/B220, CD49b, TCRγ/δ, and TER119). Labeled cells were then magnetically removed using streptavidin-bound magnetic beads, leaving the desired CD4+ T cells.
In vitro mouse Th17 differentiation: Mouse CD4+ T cells isolated as above were polarized into Th17 cells as follows: Tissue culture-treated 100 mm plates (Corning, Corning, N.Y.) were coated with 2 μg/ml purified NA/LE hamster anti-mouse CD3e clone 145-2C11 antibody (BD Biosciences, San Jose, Calif.) overnight at 4° C. Each coated plate was seeded with ˜2-3 e6 mouse CD4+ T cells in polarization media consisting of culture media (RPMI 1640/FBS/2-Mercaptoethanol/Pen/Strep Amphotericin B) supplemented with: recombinant mouse IL-6 (50 ng/ml), […] (50 ng/ml), IL-23 (50 ng/ml)(R&D Systems, Minneapolis, Minn.), recombinant human TGF1β (5 ng/ml) (Cell Signaling Technology, Danvers, Mass.), anti-CD28 clone 37.51 (10 μg/ml)(BD Biosciences, San Jose, Calif.), anti-IL-2 clone JES6-1A12 (1 μg/ml), anti-IL-4 clone 11B11 (10 μg/ml), and anti-IFNγ clone XMG1.2 (10 μg/ml). All recombinant mouse cytokines and anti-mouse neutralizing antibodies were purchased from eBioscience (San Diego, Calif.) unless otherwise specified. Cells were incubated in the above Polarization media for 3 d at 37° C. in a humidified atmosphere at 5% CO2. After 3 d, cells were re-polarized as above, except for the following cytokine and neutralizing antibody concentration changes: recombinant mouse IL-6 (40 ng/ml), recombinant human TGFβ (1 ng/ml), anti-CD28 clone 37.51 (5 μg/ml), anti-IL-2 clone JES6-1A12 (0.5 μg/ml), anti-IL-4 clone 11B11 (5 μg/ml), and anti-IFNγ clone XMG1.2 (5 μg/ml). Cells were maintained under the above conditions for an additional 3 d at 37° C. in humidified atmosphere at 5% CO2 for a total of 6 days of polarization.
Inhibition of cytokine response by in vitro-polarized murine Th17 cells stimulated with PMA/ionomycin: Murine Th17 cells, polarized as described above, were seeded at 2e6 cells/ml in culture media. Cells were pre-treated with test compounds (10 μM down by ⅕ in a 4-point serial dilution series) for 1 h at 37° C. in a humidified atmosphere at 5% CO2. Cells were then stimulated with 50 ng/ml phorbol 12-myristate 13-acetate (PMA)(Sigma-Aldrich, St. Louis, Mo.)+1 μg/ml ionomycin (Life Technologies, Grand Island, N.Y.) for 20 h at 37° C. in a humidified atmosphere at 5% CO2. Supernatant was collected and analyzed using Bio-Plex Pro Mouse Cytokine Th17 Panel A 6-Plex and the Bio-Plex Pro Mouse Cytokine Th17 Panel B 8-Plex (Bio-Rad Laboratories, Hercules, Calif.) as per manufacturer's protocols. Magnetic beads were read on the Bio-Plex MAGPIX multiplex reader instrument using the accompanying xPONENT 4.2 acquisition software (Bio-Rad Laboratories, Hercules, Calif.). Data were analyzed via the Bio-Plex Manager software v6.1 (Bio-Rad Laboratories).

The mark [1] stands for this setting: read-out: EC50 (nM) of cytokine reduction, IFNγ.
Where [2] appears, read: read-out: EC50 (nM) of cytokine reduction, IL-6.
The mark [3] stands for this setting: read-out: EC50 (nM) of cytokine reduction, IL-10.
Where [4] appears, read: read-out: EC50 (nM) of cytokine reduction, IL-17A.
The mark [5] stands for this setting: read-out: EC50 (nM) of cytokine reduction, IL-21.
The mark [6] stands for this setting: read-out: EC50 (nM) of cytokine reduction, IL-22.
Where [7] appears, read: read-out: EC50 (nM) of cytokine reduction, IL-23p19.

SMILES strings stand for the structures. Where two headings read alike, the source gives them in different places.

As for `CCOc1cc(C(=O)N2CCC(N3CCCC3)CC2)ccc1Nc1cc2c(cn1)N(C)C(=O)c1ccccc1N2C` [Compound 46, 3-(2-Ethoxy-4-(4-(pyrrolidin-1-yl)piperidine-1-carbonyl)phenylamino)-5,11-dimethyl-5H-benzo[e]pyrido[3,4-b][1,4]diazepin-10(11H)-one], the EC50 runs as follows: under setting [1], 4270 nM; under setting [2], 1740 nM; under setting [3], 577 nM; under setting [4], more than 10000 nM; under setting [5], 4850 nM; under setting [6], 2630 nM. Besides, the EC50 under setting [7] worked out at 480 nM.

Take `CCOc1cc(C(=O)NCC2CC2)ccc1Nc1cc2c(cn1)N(C)C(=O)c1ccccc1N2C` [Compound 57]: the EC50 is 6930 nM under setting [1]; 2920 nM under setting [2]; 2150 nM under setting [3]; more than 10000 nM under setting [4]; 3990 nM under setting [5]; 2120 nM under setting [6]. Moreover, the EC50 under setting [7] came out at 840 nM.

In the case of `CCOc1cc(C(=O)N2CCC(N3CCN(C)CC3)CC2)ccc1Nc1cc2c(cn1)N(C)C(=O)c1ccccc1N2C` [Compound 61], the EC50 is more than 10000 nM under setting [1]; 1600 nM under setting [2]; 1090 nM under setting [3]; more than 10000 nM under setting [4]; 4240 nM under setting [5]; 2980 nM under setting [6]. Also, under setting [7], the EC50 was found to be 800 nM.

As for `CCOc1cc(C(=O)N2CCNCC2)ccc1Nc1cc2c(cn1)N(C)C(=O)c1ccccc1N2C` [Compound 62], the EC50 is, setting by setting: under setting [1], 8540 nM; under setting [2], 2480 nM; under setting [3], 1820 nM; under setting [4], more than 10000 nM; under setting [5], 4980 nM; under setting [6], 5010 nM. The EC50 under setting [7] was found to be 1340 nM.

Consider `CCOc1cc(C(=O)N2CCC(N3CCN(C)CC3)CC2)ccc1Nc1cc2c(cn1)N(C)C(=O)c1occc1N2C` [Compound 65], for which the EC50 is more than 10000 nM under setting [1]; 2380 nM under setting [2]; 979 nM under setting [3]; more than 10000 nM under setting [4]; 8280 nM under setting [5]; 5080 nM under setting [6]. Besides, the EC50 under setting [7] was found to be 940 nM.

Turning to `CCOc1cc(C(=O)N2CC[C@@H](N(C)C)C2)ccc1Nc1cc2c(cn1)N(C)C(=O)c1ccccc1N2C` [Compound 115], the EC50 runs as follows: under setting [1], 1770 nM; under setting [2], 1170 nM; under setting [3], 373 nM; under setting [4], 4980 nM; under setting [5], 2110 nM; under setting [6], 880 nM. Under setting [7], the EC50 was determined as 360 nM.
